# Test results as given in PMC5513211, “PA-6 inhibits inward rectifier currents carried by V93I and D172N gain-of-function KIR2.1 channels, but increases channel protein expression” (Journal of Biomedical Science, 2017).
# Where a chain is given by its changes, count along the chain named. Read-outs that look alike come from different tables or passages of the source.
# Legend:
# Kv7.1 channel, V307L = conditions: cited from earlier work
# D172N KIR2.1 [1] = molecular target: T1, D172N KIR2.1 (Homo sapiens, UniProt P63252, D172N); test: Western blot of KIR2.1 expression, transiently transfected HEK293T cells, D172N; type: cell-based; conditions: 24 h
# T1 construct: expressed in transfected cells; host or cells: HEK293T
# T1 sequence (P63252 1-427 D172N): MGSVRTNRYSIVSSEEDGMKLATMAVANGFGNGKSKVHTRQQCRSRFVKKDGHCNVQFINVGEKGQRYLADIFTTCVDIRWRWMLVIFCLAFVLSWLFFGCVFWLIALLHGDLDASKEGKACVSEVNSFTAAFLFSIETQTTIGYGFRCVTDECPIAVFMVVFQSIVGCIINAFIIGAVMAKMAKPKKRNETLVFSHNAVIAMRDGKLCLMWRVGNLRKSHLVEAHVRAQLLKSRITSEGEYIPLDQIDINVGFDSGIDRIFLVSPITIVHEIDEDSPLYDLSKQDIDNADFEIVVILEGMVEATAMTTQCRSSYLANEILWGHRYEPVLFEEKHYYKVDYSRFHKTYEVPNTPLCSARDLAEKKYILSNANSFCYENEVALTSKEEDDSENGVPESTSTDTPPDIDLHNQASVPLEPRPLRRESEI
# Experimental: (§1) HEK293T cells were grown in 60 mm culture dishes containing 3 mL DMEM supplemented with 10% FCS, L-Glutamine and Pen-Strep, and transfected using linear polyethylenimine (PEI) (PolysciencesInc, Eppelheim, Germany) as described earlier. Cell lysates were prepared in buffer D (20 mM HEPES, 125 mM NaCl, 10% glycerol, 1 mM EDTA, 1 mM EGTA, 1 mM dithiothreitol, and 1% Triton X-100, pH 7.6, supplemented with 1 mM PMSF and 10 μg/mL aprotinin). 20 μg protein lysate was separated by 10% SDS-PAGE and blotted onto nitrocellulose membrane. Ponceau staining was used to reveal equal protein loading and subsequent quantification. Blots were blocked with 5% (v/v) […] in TBST (20 mM Tris-HCl pH 8.0, 150 mM NaCl, 0.05% (v/v) Tween-20) for 1 h at room temperature. KIR2.1 WT and mutants were detected by N-terminal KIR2.1 antibody (Santa Cruz Biotechnology, Dallas Tx, USA, cat. No. sc-18708) and peroxidase-conjugated donkey anti-goat secondary antibody (Jackson ImmunoResearch, West Grove, PA, cat. No. 705-035-003) followed by ECL detection procedure (GE Healthcare, Hoevelaken, The Netherlands). For quantification purposes, untransfected HEK293T cells were used as blank and protein levels were normalized to ponceau staining levels. Differences between group averages were tested by using a one-way ANOVA with a Bonferroni’s post-hoc test.
# [2] = system: WT, V93I and D172N KIR2.1 channels; test: Confocal immunofluorescence microscopy of KIR2.1 localization in HEK293T cells; type: cell-based, human; conditions: 24 h, WT or mutant
# Experimental: HEK293T and MES-1 cells were cultured on pre-coated (0.1% gelatin) glass coverslips and transfected using Lipofectamin (Invitrogen, Breda, The Netherlands). Cell fixation, immunolabeling and imaging were performed exactly as described earlier. Antibodies used were anti-KIR2.l (1:250; Santa Cruz Biotechnology, cat. no. sc-18708) and anti-Pan Cadherin (1:800, Sigma-Aldrich, St. Louis MO, USA, cat. No. C1821). HEK293T cells were imaged by confocal microscopy using a Zeiss LSM 700 confocal microscope (Carl Zeiss Microscopy GmbH, Germany) equipped with a 63× oil immersion objective (NA 1.4). Excitation was performed with an air-cooled Argon ion laser (LASOS, RMC 7812Z, 488 nm) for GFP and a HeNE (LASOS, SAN 7450A, 543 nm) laser for DyLight. MES-1 cells were imaged using a conventional Nikon eclipse 80i light microscopy equipped with a 40× objective (NA 0.75).
# V93I KIR2.1 [3] = molecular target: T2, V93I KIR2.1 (Homo sapiens, UniProt P63252, V93I); test: Whole cell patch clamp, V93I KIR2.1 currents; type: cell-based; conditions: whole cell mode
# T2 construct: expressed in transfected cells; host or cells: HEK293T
# T2 sequence (P63252 1-427 V93I): T1 sequence (P63252 1-427 D172N) with V93I, N172D
# Experimental: (§2) Mutations V93I and D172N were engineered into a human KCNJ2-pcDNA3 expression construct, using the QuikChange II XL Site-Directed Mutagenesis Kit (Stratagene, La Jolla, CA) and custom designed primers. The presence of the introduced mutations was confirmed by Sanger sequencing.
# (§3) Whole cell patch clamp measurements were done as described before using an AxoPatch 200B amplifier controlled by pClamp9 software (Molecular devices, Sunnyvale, CA, USA) at 21 °C. Whole cell IKIR2.1 measurements were performed by applying 1 s test pulses ranging between −120 and +30 mV, in 10 mV increments, from a holding potential of −40 mV, and with series resistance compensation of at least 70%. Steady state current at the end of the pulse was normalized to cell capacitance and plotted versus test potential (corrected for liquid junction potential). Extracellular solution contained 140 mM NaCl, 5 mM KCl, 1 mM CaCl2, 1 mM MgCl2, 6 mM glucose, 17.5 mM NaHCO3, 15 mM HEPES, pH 7.4/NaOH. Pipette solution contained 125 mM potassium gluconate, 10 mM KCl, 5 mM HEPES, 5 mM EGTA, 2 mM MgCl2, 0.6 mM CaCl2, 4 mM Na2ATP, pH 7.20/KOH.
# WT KIR2.1 [4] = molecular target: T3, WT KIR2.1 (Homo sapiens, UniProt P63252); test: Western blot of KIR2.1 expression, transiently transfected HEK293T cells, WT; type: cell-based; conditions: 24 h
# T3 construct: expressed in transfected cells; host or cells: HEK293T
# T3 sequence (P63252 1-427): T1 sequence (P63252 1-427 D172N) with N172D
# Experimental: as §1
# WT KIR2.1 [5] = molecular target: T3, WT KIR2.1; test: Whole cell patch clamp, WT KIR2.1 currents; type: cell-based; conditions: whole cell mode
# Experimental: as §2, §3
# V93I KIR2.1 [6] = molecular target: T2, V93I KIR2.1; test: Western blot of KIR2.1 expression, transiently transfected HEK293T cells, V93I; type: cell-based; conditions: 24 h
# Experimental: as §1
# IK1 / KIR2.1 ion channel = system: IK1 / KIR2.1 ion channel; set-up: method as in PMID 23625347; conditions: inside-out patch clamp methodology; read-out: IC50, IK1 inhibition; cited from earlier work
# [7] = system: WT, V93I and D172N KIR2.1 channels; test: Immunofluorescence microscopy of KIR2.1 localization in MES-1 cells; type: cell-based, human; conditions: 5 μM, 24 h
# Experimental: HEK293T and MES-1 cells were cultured on pre-coated (0.1% gelatin) glass coverslips and transfected using Lipofectamin (Invitrogen, Breda, The Netherlands). Cell fixation, immunolabeling and imaging were performed exactly as described earlier. […] HEK293T cells were imaged by confocal microscopy using a Zeiss LSM 700 confocal microscope (Carl Zeiss Microscopy GmbH, Germany) equipped with a 63× oil immersion objective (NA 1.4). […] MES-1 cells were imaged using a conventional Nikon eclipse 80i light microscopy equipped with a 40× objective (NA 0.75).
# D172N KIR2.1 [8] = molecular target: T1, D172N KIR2.1; test: Inside-out patch clamp, ramp protocol, D172N KIR2.1 currents; type: cell-based; conditions: inside-out mode; for IC50: HEK293T, 21 °C
# Text: as §2
# (§4) HEK293T cells were transfected with WT, V93I or D172N constructs together with a GFP expression construct to enable detection of transfected cells. Inside-out patch clamp measurements were made using a HEKA EPC-10 Double Plus amplifier controlled by PatchMaster 2.10 software (HEKA, Lambrecht/Pfalz, Germany) at 21 °C. To record WT, V93I and D172N KIR2.1 currents, inside-out patch-clamp measurements were performed using a ramp protocol ranging from −100 to +100 mV in 5 s from a holding potential of −40 mV. Excised patches were placed in close proximity to the inflow region of the perfusion chamber. Bath solution contained 125 mM KCl, 4 mM EDTA (2K), 7.2 mM K2HPO4, 2.8 mM KH2PO4, pH 7.20/KOH. Pipette solution contained 145 mM KCl, 1 mM CaCl2, 5 mM HEPES, pH 7.40/KOH. Measurements were started following washout of polyamines/Mg^2+ from the channel pore observed by the disappearance of current rectification. For IC50 curves, fractional block at −80 and +50 mV was determined by dividing current levels obtained with PA-6 containing solutions by current levels of control traces recorded in the absence of PA-6.
# D172N KIR2.1 [9] = molecular target: T1, D172N KIR2.1; test: Whole cell patch clamp, D172N KIR2.1 currents; type: cell-based; conditions: whole cell mode
# Experimental: as §2, §3
# WT KIR2.1 [10] = conditions: 10 μM, cells stably expressing GFP-tagged KIR2.1; cited from earlier work
# V93I KIR2.1 [11] = molecular target: T2, V93I KIR2.1; test: Inside-out patch clamp, ramp protocol, V93I KIR2.1 currents; type: cell-based; conditions: inside-out mode, HEK293T, 21 °C
# Text: as §2, §4
# WT KIR2.1 [12] = molecular target: T3, WT KIR2.1; test: Inside-out patch clamp, ramp protocol, WT KIR2.1 currents; type: cell-based; conditions: inside-out mode, HEK293T, 21 °C
# Text: as §2, §4
# D172N KIR2.1 [13] = conditions: read-out: IC50 (sensitivity for chloroquine); whole cell mode; cited from earlier work
# WT KIR2.1 [14] = conditions: read-out: IC50 (sensitivity for chloroquine); whole cell mode; cited from earlier work
# [15] = system: Kv11.1 (hERG) channel, WT and N558K; conditions: N558K less sensitive than WT; cited from earlier work
# [16] = at −50 mV, read-out: Inhibition of outward IK1
# [17] = at −110 mV, read-out: Inhibition of inward IK1
# [18] = at +50 mV, read-out: IC50, outward current
# [19] = at −80 mV, read-out: IC50, inward current
compound,measurement,setting,value
CCS(=O)(=O)N(C)[C@H]1c2cc(C#N)ccc2OC(C)(C)[C@@H]1O [Chromanol293B],Increase of IC50 value by V307L mutation,"Kv7.1 channel, V307L; V307L versus WT Kv7.1",7 fold
N=C(Nc1ccc(OCCCCCOc2ccc(NC(=N)c3ccccc3)cc2)cc1)c1ccccc1 [PA-6],Increase of KIR2.1 expression level,D172N KIR2.1 [1]; 5 μM,4.8 ± 2.0 fold
same,Effect on KIR2.1 expression level at lower concentrations,D172N KIR2.1 [1]; 0.2 and 1 μM,did not result in significant increased expression
same,Subcellular location of KIR2.1 channels,[2]; 1 μM,induced an intracellular increase of the channel proteins in small aggregates
same,Subcellular location of KIR2.1 channels,[2]; 5 μM,further increased the level of intracellular accumulation
same,inhibition at 1 µM,V93I KIR2.1 [3]; [16],18 ± 20%
same,inhibition at 1 µM,V93I KIR2.1 [3]; [17],28 ± 14%
same,inhibition at 3 µM,V93I KIR2.1 [3]; [16],77 ± 29%
same,inhibition at 3 µM,V93I KIR2.1 [3]; [17],64 ± 4%
same,IC50,V93I KIR2.1 [3],1 to 3 µM
same,Increase of KIR2.1 expression level,WT KIR2.1 [4]; 5 μM,6.3 ± 1.5 fold
same,Effect on KIR2.1 expression level at lower concentrations,WT KIR2.1 [4]; 0.2 and 1 μM,did not result in significant increased expression
same,inhibition at 1 µM,WT KIR2.1 [5]; [16],28 ± 36%
same,inhibition at 1 µM,WT KIR2.1 [5]; [17],30 ± 16%
same,inhibition at 3 µM,WT KIR2.1 [5]; [16],94 ± 6%
same,inhibition at 3 µM,WT KIR2.1 [5]; [17],68 ± 15%
same,IC50,WT KIR2.1 [5],1 to 3 µM
same,Increase of KIR2.1 expression level,V93I KIR2.1 [6]; 5 μM,3.9 ± 0.9 fold
same,Effect on KIR2.1 expression level at lower concentrations,V93I KIR2.1 [6]; 0.2 and 1 μM,did not result in significant increased expression
same,IC50,IK1 / KIR2.1 ion channel,0.014 µM
same,Subcellular location of KIR2.1 channels,[7],resulted in intracellular accumulation
same,IC50,D172N KIR2.1 [8]; [18],0.129 µM
same,IC50,D172N KIR2.1 [8]; [19],0.109 µM
same,Sensitivity of D172N channels relative to WT and V93I,D172N KIR2.1 [8],approximately two to three fold less sensitive
same,inhibition at 1 µM,D172N KIR2.1 [9]; [16],10 ± 6%
same,inhibition at 1 µM,D172N KIR2.1 [9]; [17],30 ± 10%
same,inhibition at 3 µM,D172N KIR2.1 [9]; [16],86 ± 7%
same,inhibition at 3 µM,D172N KIR2.1 [9]; [17],83 ± 1%
same,IC50,D172N KIR2.1 [9],1 to 3 µM
same,Effect on WT KIR2.1 expression,WT KIR2.1 [10],able to enhance expression of WT KIR2.1
same,IC50,V93I KIR2.1 [11]; [18],0.0436 µM
same,IC50,V93I KIR2.1 [11]; [19],0.058 µM
same,IC50,WT KIR2.1 [12]; [18],0.0355 µM
same,IC50,WT KIR2.1 [12]; [19],0.0529 µM
CCN(CC)CCCC(C)Nc1ccnc2cc(Cl)ccc12 (centres unmarked) [chloroquine],IC50,D172N KIR2.1 [13],1.2 to 3.3 µM
same,IC50,WT KIR2.1 [14],1.4 to 2.4 µM
CC[C@H]1CN2CC[C@H]1C[C@@H]2[C@@H](O)c1ccnc2ccc(OC)cc12 [hydroquinidine],Difference in IC50 values for WT and N558K Kv11.1 channels,[15],3.5 fold
OC(c1cc(C(F)(F)F)nc2c(C(F)(F)F)cccc12)C1CCCCN1 (centres unmarked) [mefloquine],Sensitivity of V307L Kv7.1 versus WT variant,"Kv7.1 channel, V307L",equally sensitive
